Test results: ChEMBL document CHEMBL1201862, “PubChem BioAssay data set” (2004)
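All cell lines were grown in 96-well plates and treated with compound for 48 hours. Abbreviation: GI50, concentration required for 50% inhibition of growth.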 The source made the active and inactive calls. Rule as the data show it: active = GI50 up to about 1.1 µM and inactive = higher.

How the values were obtained:
Assay in all cases: DTP human tumour cell line panel, 48 h
[1] = test system: A498
[2] = test system: A549
[3] = test system: HCT-15
[4] = test system: HOP-92
[5] = test system: IGROV-1
[6] = test system: KM12
[7] = test system: MDA-MB-435
[8] = test system: MDA-N
[9] = test system: MOLT-4
[10] = test system: Malme-3M
[11] = test system: NCI-H226
[12] = test system: NCI-H23
[13] = test system: OVCAR-8
[14] = test system: RXF 393
[15] = test system: SK-MEL-28
[16] = test system: SK-MEL-5
[17] = test system: SNB-75
[18] = test system: HCC 2998
[19] = test system: Hs-578T
[20] = test system: MCF7

Measured: GI50

O=C(O)C(O)(c1ccc(-c2ccccc2)cc1)c1ccc(-c2ccccc2)cc1
19.2 µM: [3]
inactive: [1] 23.3 µM | [2] 40.4 µM | [4] 19.1 µM | [5] 23.4 µM | [6] 19.9 µM | [7] 19.5 µM | [8] 17.1 µM | [9] 42.2 µM | [10] 23.1 µM | [11] 26.9 µM | [12] 18.9 µM | [13] 32.5 µM | [14] 22 µM | [15] 35.3 µM | [16] 18.9 µM | [17] 17.1 µM

O=C(c1ccccc1)C(C(=O)c1ccccc1)C1(O)C(=O)c2ccccc2C1=O
44.2 µM: [3]
active: [14] 0.253 µM
inactive: [1] 47.4 µM | [2] 29.3 µM | [18] 39.4 µM | [4] 25.8 µM | [5] 53.3 µM | [6] 51.5 µM | [9] 19.8 µM | [10] 24.2 µM | [11] 37.1 µM | [12] 28.6 µM | [13] 25.6 µM | [15] 3.6 µM | [16] > 10 µM | [17] 24.8 µM

O=[N+]([O-])c1ccc(C2=NN(c3ccccc3)C[N+](c3ccc(Br)cc3)=N2)cc1
> 100 µM: [3]
inactive: [1] > 100 µM | [2] 82 µM | [18] 41.6 µM | [4] 78.7 µM | [5] > 100 µM | [6] > 100 µM | [9] 44.3 µM | [10] > 100 µM | [11] > 100 µM | [12] 70.6 µM | [13] > 100 µM | [14] 31.1 µM | [15] > 100 µM | [16] > 100 µM | [17] > 100 µM

CN/C=C(/c1ccc(OC)cc1)C(O)c1ccc(OC)c(OC)c1 (stereo unspecified)
inactive: [1] > 100 µM | [2] > 100 µM | [18] > 100 µM | [4] > 100 µM | [5] > 100 µM | [6] > 100 µM | [9] > 100 µM | [10] > 100 µM | [11] > 100 µM | [12] > 100 µM | [13] > 100 µM | [14] > 100 µM | [15] > 100 µM | [16] > 100 µM | [17] 69.8 µM
> 100 µM: [3]

COC1OC(C)/C(=N/O)C2OC(C)(C)OC12 (stereo unspecified)
inactive: [1] > 100 µM | [2] > 100 µM | [18] > 100 µM | [4] > 100 µM | [19] > 100 µM | [5] > 100 µM | [6] > 100 µM | [20] 78.7 µM | [7] > 100 µM | [9] > 100 µM | [10] > 100 µM | [11] > 100 µM | [12] > 100 µM | [13] > 100 µM | [14] > 100 µM | [15] > 100 µM | [16] > 100 µM
> 100 µM: [3]

C[N+](C)=C/C=C(\Cl)c1ccc2ccccc2c1
inactive: [1] > 63 µM | [2] > 75.7 µM | [18] 6.37 µM | [4] 21 µM | [19] 32.4 µM | [5] 16.5 µM | [6] 15 µM | [20] 19 µM | [7] 16.7 µM | [9] 1.54 µM | [10] 11.8 µM | [11] 17.3 µM | [12] 5.98 µM | [13] 9.66 µM | [14] 16.5 µM | [15] 3.61 µM | [16] 18.1 µM | [17] 21.5 µM
2.62 µM: [3]

OCC(O)CNc1ccnc2cc(Cl)ccc12 (stereo unspecified)
inactive: [1] > 100 µM | [2] > 100 µM | [18] > 100 µM | [4] > 100 µM | [5] > 100 µM | [6] > 100 µM | [9] > 100 µM | [10] > 100 µM | [11] > 100 µM | [12] > 100 µM | [13] > 100 µM | [14] > 100 µM | [15] > 100 µM | [16] > 100 µM | [17] > 100 µM
> 100 µM: [3]

Nc1ccc2nc(-c3cccc(C(F)(F)F)c3)cc(O)c2c1
inactive: [1] 29.1 µM | [2] 71.4 µM | [18] 60.1 µM | [4] > 100 µM | [19] 28.9 µM | [5] 33.5 µM | [6] 36.2 µM | [20] 28.2 µM | [7] 20.3 µM | [9] 40.4 µM | [10] 40.6 µM | [12] 54.6 µM | [13] 47 µM | [15] 53.5 µM | [16] 22.9 µM | [17] 27.3 µM
34.8 µM: [3]

COc1ccc(O)c(C(=O)CCC(=O)O)c1
> 100 µM: [3]
inactive: [1] > 100 µM | [2] > 100 µM | [18] > 100 µM | [4] > 100 µM | [5] > 100 µM | [6] > 100 µM | [9] > 100 µM | [10] > 100 µM | [11] > 100 µM | [12] > 100 µM | [13] > 100 µM | [14] > 100 µM | [15] > 100 µM | [16] > 100 µM | [17] > 100 µM

CCOC(=O)c1cc(I)c(-c2cc(C)no2)n1C
49.9 µM: [3]
inactive: [1] 23.7 µM | [2] 61.7 µM | [4] 36.4 µM | [6] 21.1 µM | [7] 34.8 µM | [8] 43.9 µM | [9] 21.2 µM | [10] 28.1 µM | [11] > 100 µM | [12] 44.1 µM | [13] 59 µM | [14] 15.4 µM | [15] > 100 µM | [16] 33.1 µM | [17] 49.8 µM

O=C(O/N=C1/CCC/C1=C\c1ccccc1)c1ccc(Cl)c(Cl)c1
> 100 µM: [3]
inactive: [1] > 100 µM | [2] > 100 µM | [18] > 100 µM | [4] > 100 µM | [5] > 100 µM | [6] > 100 µM | [9] > 100 µM | [10] > 100 µM | [11] > 100 µM | [12] > 100 µM | [13] > 100 µM | [14] > 100 µM | [15] > 100 µM | [16] > 100 µM | [17] > 100 µM

C/C(CCn1[nH]c(=O)ccc1=O)=N\N=C(N)N
inactive: [1] > 100 µM | [2] > 100 µM | [18] > 100 µM | [4] > 100 µM | [5] > 100 µM | [6] > 100 µM | [9] > 100 µM | [10] > 100 µM | [11] > 100 µM | [12] > 100 µM | [13] > 100 µM | [14] > 100 µM | [15] > 100 µM | [16] > 100 µM | [17] > 100 µM
> 100 µM: [3]

Cc1cc(Cl)ccc1NC(=O)CC/C(CC(=O)C(C)C)=N\NC(=O)C[n+]1ccccc1
> 100 µM: [3]
inactive: [1] > 100 µM | [2] > 100 µM | [18] > 100 µM | [4] > 100 µM | [5] > 100 µM | [6] > 100 µM | [9] > 100 µM | [10] > 100 µM | [11] > 100 µM | [12] > 100 µM | [13] > 100 µM | [14] > 100 µM | [15] > 100 µM | [16] > 100 µM | [17] > 100 µM

COc1ccc(/C=C/C(=O)c2sc(-n3nc(-c4ccccc4)cc3-c3ccccc3)nc2C)cc1
inactive: [1] > 10 µM | [2] > 10 µM | [18] > 10 µM | [4] > 10 µM | [5] > 10 µM | [6] 76.4 µM | [9] 56.6 µM | [10] > 10 µM | [11] > 10 µM | [12] > 10 µM | [13] > 10 µM | [14] > 10 µM | [15] > 10 µM | [16] 52.1 µM | [17] 8.43 µM
75.2 µM: [3]

CN1C2CCC1CC(=CCOC(c1ccc(F)cc1)c1ccc(F)cc1)C2
inactive: [1] 14.7 µM | [2] 17.1 µM | [18] 4 µM | [19] 11.9 µM | [5] 15.7 µM | [6] 15 µM | [20] 16.6 µM | [7] 12.8 µM | [9] 15 µM | [10] 13.2 µM | [11] 20.3 µM | [12] 17.7 µM | [13] 17.1 µM | [14] 14.5 µM | [15] 18.9 µM | [16] 10.3 µM | [17] 13.8 µM
15.7 µM: [3]

COc1cccc(/C=C2\N=C(Cl)OC2=O)c1O
inactive: [1] > 100 µM | [2] > 100 µM | [18] > 100 µM | [4] > 100 µM | [5] > 100 µM | [6] > 100 µM | [9] > 100 µM | [10] > 100 µM | [11] > 100 µM | [12] > 100 µM | [13] > 100 µM | [14] > 100 µM | [15] > 100 µM | [16] > 100 µM | [17] 30.5 µM
> 100 µM: [3]

O=C(NCc1cccnc1)C1COc2cc(-c3cc(=O)c4ccccc4o3)ccc2O1 (stereo unspecified)
77.3 µM: [3]
inactive: [1] > 61.4 µM | [2] 5.79 µM | [18] > 100 µM | [4] > 75.3 µM | [5] > 66.5 µM | [6] > 36.1 µM | [9] 5.14 µM | [10] > 64.6 µM | [11] 3.62 µM | [12] 13.6 µM | [13] 3.64 µM | [14] 28.7 µM | [15] 3.49 µM | [16] 26.1 µM | [17] 3.49 µM
